From ChEMBL document CHEMBL1201862, “PubChem BioAssay data set” (2004)
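Growth conditions: 96-well plates. Treatment: test compound, 48 hours, 5 concentrations. Analysis: linear interpolation between bracketing concentrations; unreached endpoints set to highest concentration. The concentration for 50% growth inhibition is given as GI50.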 Calls of active or inactive are those of the source. Cut-off read from the data, not from the text of the source: active = GI50 up to about 1.1 µM and inactive = higher.

Assays:
Assay in all cases: growth of human tumour cells (NCI), 48 h
OVCAR-3 = test system: OVCAR-3
SNB-75 = test system: SNB-75
SK-MEL-2 = test system: SK-MEL-2
A549 = test system: A549
NCI-H23 = test system: NCI-H23
HT-29 = test system: HT-29
NCI-H226 = test system: NCI-H226
BT-549 = test system: BT-549
SNB-19 = test system: SNB-19
LOX IMVI = test system: LOX IMVI
SK-MEL-28 = test system: SK-MEL-28
HOP-92 = test system: HOP-92
NCI/ADR-RES = test system: NCI/ADR-RES
MDA-MB-231 = test system: MDA-MB-231
CCRF-CEM = test system: CCRF-CEM
NCI-H460 = test system: NCI-H460
COLO 205 = test system: COLO 205
NCI-H522 = test system: NCI-H522
IGROV-1 = test system: IGROV-1
MDA-N = test system: MDA-N
TK-10 = test system: TK-10
EKVX = test system: EKVX
OVCAR-8 = test system: OVCAR-8
ACHN = test system: ACHN
T47D = test system: T47D
UO-31 = test system: UO-31
DU-145 = test system: DU-145
MOLT-4 = test system: MOLT-4
U-251 = test system: U-251
MDA-MB-435 = test system: MDA-MB-435
Malme-3M = test system: Malme-3M
UACC-257 = test system: UACC-257
Hs-578T = test system: Hs-578T
OVCAR-4 = test system: OVCAR-4
SF-539 = test system: SF-539
A498 = test system: A498
HCT-15 = test system: HCT-15
M14 = test system: M14
HOP-62 = test system: HOP-62
SR = test system: SR
KM12 = test system: KM12
CAKI-1 = test system: CAKI-1
RPMI-8226 = test system: RPMI-8226
SN12C = test system: SN12C
SF-295 = test system: SF-295
MCF7 = test system: MCF7
HCT-116 = test system: HCT-116
UACC-62 = test system: UACC-62
HCC 2998 = test system: HCC 2998
SK-OV-3 = test system: SK-OV-3
SF-268 = test system: SF-268
RXF 393 = test system: RXF 393
786-0 = test system: 786-0
SW-620 = test system: SW-620
PC-3 = test system: PC-3
OVCAR-5 = test system: OVCAR-5
SK-MEL-5 = test system: SK-MEL-5
HL-60 = test system: HL-60
K562 = test system: K562

Compound: CCOP(=O)(OCC)/C(C#N)=C/c1cccn1C
- GI50 (OVCAR-3): > 100000 nM (inactive)
- GI50 (SNB-75): > 100000 nM (inactive)
- GI50 (SK-MEL-2): > 100000 nM (inactive)
- GI50 (A549): > 100000 nM (inactive)
- GI50 (NCI-H23): > 100000 nM (inactive)
- GI50 (HT-29): > 100000 nM (inactive)
- GI50 (NCI-H226): > 100000 nM (inactive)
- GI50 (BT-549): > 100000 nM (inactive)
- GI50 (SNB-19): > 100000 nM (inactive)
- GI50 (LOX IMVI): > 100000 nM (inactive)
- GI50 (SK-MEL-28): > 100000 nM (inactive)
- GI50 (HOP-92): > 100000 nM (inactive)
- GI50 (NCI/ADR-RES): > 100000 nM (inactive)
- GI50 (MDA-MB-231): > 100000 nM (inactive)
- GI50 (CCRF-CEM): 25900 nM (inactive)
- GI50 (NCI-H460): > 100000 nM (inactive)
- GI50 (COLO 205): > 100000 nM (inactive)
- GI50 (NCI-H522): > 100000 nM (inactive)
- GI50 (IGROV-1): > 100000 nM (inactive)
- GI50 (MDA-N): > 100000 nM (inactive)
- GI50 (TK-10): > 100000 nM (inactive)
- GI50 (EKVX): > 100000 nM (inactive)
- GI50 (OVCAR-8): > 100000 nM (inactive)
- GI50 (ACHN): > 100000 nM (inactive)
- GI50 (T47D): > 100000 nM (inactive)
- GI50 (UO-31): 41600 nM (inactive)
- GI50 (DU-145): > 100000 nM (inactive)
- GI50 (MOLT-4): > 100000 nM (inactive)
- GI50 (U-251): > 100000 nM (inactive)
- GI50 (MDA-MB-435): > 100000 nM (inactive)
- GI50 (Malme-3M): > 100000 nM (inactive)
- GI50 (UACC-257): > 100000 nM (inactive)
- GI50 (Hs-578T): > 100000 nM (inactive)
- GI50 (OVCAR-4): > 100000 nM (inactive)
- GI50 (SF-539): > 100000 nM (inactive)
- GI50 (A498): > 100000 nM (inactive)
- GI50 (HCT-15): > 100000 nM
- GI50 (M14): > 100000 nM (inactive)
- GI50 (HOP-62): > 100000 nM (inactive)
- GI50 (SR): > 100000 nM (inactive)
- GI50 (KM12): > 100000 nM (inactive)
- GI50 (CAKI-1): > 100000 nM (inactive)
- GI50 (RPMI-8226): > 100000 nM (inactive)
- GI50 (SN12C): > 100000 nM (inactive)
- GI50 (SF-295): > 100000 nM (inactive)
- GI50 (MCF7): > 100000 nM (inactive)
- GI50 (HCT-116): > 100000 nM (inactive)
- GI50 (UACC-62): > 100000 nM (inactive)
- GI50 (HCC 2998): > 100000 nM (inactive)
- GI50 (SK-OV-3): > 100000 nM (inactive)
- GI50 (SF-268): > 100000 nM (inactive)
- GI50 (RXF 393): > 100000 nM (inactive)
- GI50 (786-0): > 100000 nM (inactive)
- GI50 (SW-620): > 100000 nM (inactive)
- GI50 (PC-3): > 100000 nM (inactive)
- GI50 (OVCAR-5): > 100000 nM (inactive)
- GI50 (SK-MEL-5): > 100000 nM (inactive)

Compound: COC(=O)C1=C(C(=O)OC)SC2(S1)C(C(=O)OC)=C(C(=O)OC)Sc1c2ss/c1=N\c1ccc(Cl)cc1
- GI50 (OVCAR-3): 1390 nM (inactive)
- GI50 (SNB-75): 1070 nM (active)
- GI50 (SK-MEL-2): 325 nM (active)
- GI50 (A549): 1560 nM (inactive)
- GI50 (NCI-H23): 1830 nM (inactive)
- GI50 (HT-29): 525 nM (active)
- GI50 (NCI-H226): 1790 nM (inactive)
- GI50 (BT-549): 1910 nM (inactive)
- GI50 (SNB-19): 1530 nM (inactive)
- GI50 (LOX IMVI): 339 nM (active)
- GI50 (SK-MEL-28): 1700 nM (inactive)
- GI50 (HOP-92): 638 nM (active)
- GI50 (NCI/ADR-RES): 1840 nM (inactive)
- GI50 (MDA-MB-231): 948 nM (active)
- GI50 (CCRF-CEM): 197 nM (active)
- GI50 (NCI-H460): 333 nM (active)
- GI50 (COLO 205): 774 nM (active)
- GI50 (NCI-H522): 352 nM (active)
- GI50 (IGROV-1): 1140 nM (inactive)
- GI50 (MDA-N): 470 nM (active)
- GI50 (TK-10): 1400 nM (inactive)
- GI50 (EKVX): 1450 nM (inactive)
- GI50 (OVCAR-8): 1320 nM (inactive)
- GI50 (ACHN): 1400 nM (inactive)
- GI50 (T47D): 1060 nM (active)
- GI50 (UO-31): 804 nM (active)
- GI50 (DU-145): 479 nM (active)
- GI50 (MOLT-4): 336 nM (active)
- GI50 (U-251): 1350 nM (inactive)
- GI50 (HL-60): 1110 nM (active)
- GI50 (MDA-MB-435): 794 nM (active)
- GI50 (Malme-3M): 1830 nM (inactive)
- GI50 (UACC-257): 1100 nM (active)
- GI50 (Hs-578T): 2840 nM (inactive)
- GI50 (OVCAR-4): 1180 nM (inactive)
- GI50 (SF-539): 510 nM (active)
- GI50 (A498): 1770 nM (inactive)
- GI50 (HCT-15): 318 nM
- GI50 (M14): 1430 nM (inactive)
- GI50 (HOP-62): 1670 nM (inactive)
- GI50 (SR): 277 nM (active)
- GI50 (KM12): 767 nM (active)
- GI50 (CAKI-1): 733 nM (active)
- GI50 (SN12C): 552 nM (active)
- GI50 (SF-295): 2190 nM (inactive)
- GI50 (MCF7): 1110 nM (active)
- GI50 (HCT-116): 283 nM (active)
- GI50 (UACC-62): 1190 nM (inactive)
- GI50 (HCC 2998): 325 nM (active)
- GI50 (K562): 1310 nM (inactive)
- GI50 (SK-OV-3): 2000 nM (inactive)
- GI50 (SF-268): 1130 nM (inactive)
- GI50 (RXF 393): 256 nM (active)
- GI50 (786-0): 516 nM (active)
- GI50 (SW-620): 425 nM (active)
- GI50 (PC-3): 440 nM (active)
- GI50 (OVCAR-5): 1450 nM (inactive)
- GI50 (SK-MEL-5): 1390 nM (inactive)
